Test results: ChEMBL document CHEMBL4311957, “Recent advances in natural antifungal flavonoids and their derivatives” (Bioorg Med Chem Lett, 2019)
In brackets after ≈: the same amount, converted by molar mass. One block for each molecule: values may come before it.

Experiments:
Format in all cases: functional
Candida albicans [1] = test: Synergistic antifungal activity against FLC-resistant Candida albicans after 24 to 72 hrs by checkerboard microbroth dilution method
Cryptococcus neoformans [2] = test: Synergistic antifungal activity against FLC-resistant Cryptococcus neoformans 32609 after 24 to 72 hrs by checkerboard microbroth dilution method
Candida tropicalis [3] = test: Synergistic antifungal activity against FLC-resistant Candida tropicalis 2718 after 24 to 72 hrs by checkerboard microbroth dilution method
Candida parapsilosis [4] = test: Synergistic antifungal activity against FLC-resistant Candida parapsilosis ATCC 22019 after 24 to 72 hrs by checkerboard microbroth dilution method; settings: Lodderomyces parapsilosis
Pichia kudriavzevii [5] = test: Synergistic antifungal activity against FLC-resistant Candida krusei ATCC2340 after 24 to 72 hrs by checkerboard microbroth dilution method
Nakaseomyces glabratus [6] = test: Synergistic antifungal activity against FLC-resistant Candida glabrata ATCC1182 after 24 to 72 hrs by checkerboard microbroth dilution method
Candida albicans [7] = test: Synergistic antifungal activity against FLC-resistant Candida albicans after 24 to 72 hrs in presence of FLC by checkerboard microbroth dilution method
Cryptococcus neoformans [8] = test: Synergistic antifungal activity against FLC-resistant Cryptococcus neoformans 32609 after 24 to 72 hrs in presence of FLC by checkerboard microbroth dilution method
Candida tropicalis [9] = test: Synergistic antifungal activity against FLC-resistant Candida tropicalis 2718 after 24 to 72 hrs in presence of FLC by checkerboard microbroth dilution method
Candida parapsilosis [10] = test: Synergistic antifungal activity against FLC-resistant Candida parapsilosis ATCC 22019 after 24 to 72 hrs in presence of FLC by checkerboard microbroth dilution method; settings: Lodderomyces parapsilosis
Pichia kudriavzevii [11] = test: Synergistic antifungal activity against FLC-resistant Candida krusei ATCC2340 after 24 to 72 hrs in presence of FLC by checkerboard microbroth dilution method
Nakaseomyces glabratus [12] = test: Synergistic antifungal activity against FLC-resistant Candida glabrata ATCC1182 after 24 to 72 hrs in presence of FLC by checkerboard microbroth dilution method
Cryptococcus neoformans [13] = test: Antifungal activity against Cryptococcus neoformans ATCC 90112 after 48 hrs by CLSI-based method; settings: ATCC 90112, 48 h
Candida albicans [14] = test: Antifungal activity against Candida albicans ATCC 90028 after 18 hrs by two-fold microdilution method; settings: ATCC 90028, 18 h
Nakaseomyces glabratus [15] = test: Antifungal activity against Candida glabrata ATCC 90030 after 18 hrs by two-fold microdilution method; settings: ATCC 90030, 18 h
Candida parapsilosis [16] = test: Antifungal activity against Candida parapsilosis ATCC 22019 after 18 hrs by two-fold microdilution method; settings: Lodderomyces parapsilosis, ATCC 22019, 18 h
Pichia kudriavzevii [17] = test: Antifungal activity against Candida krusei ATCC 6258 after 18 hrs by two-fold microdilution method; settings: ATCC 6258, 18 h
Candida albicans [18] = test: Fungicidal activity against Candida albicans ATCC 10231 after 48 hrs; settings: ATCC 10231, 48 h
Saccharomyces cerevisiae = test: Fungicidal activity against Saccharomyces cerevisiae ATCC 9763 after 48 hrs; settings: ATCC 9763, 48 h
Cryptococcus neoformans [19] = test: Fungicidal activity against Cryptococcus neoformans ATCC 32264 after 48 hrs; settings: ATCC 32264, 48 h
Aspergillus flavus = test: Fungicidal activity against Aspergillus flavus ATCC 9170 after 48 hrs; settings: ATCC 9170, 48 h
Aspergillus fumigatus = test: Fungicidal activity against Aspergillus fumigatus ATTC 26934 after 48 hrs; settings: ATTC 26934, 48 h
Aspergillus niger = test: Fungicidal activity against Aspergillus niger ATCC 9029 after 48 hrs; settings: ATCC 9029, 48 h
Trichophyton rubrum = test: Fungicidal activity against Trichophyton rubrum CCC 110 after 48 hrs; settings: CCC 110, 48 h
[20] = test system: Trichophyton mentagrophytes; test: Fungicidal activity against Trichophyton mentagrophytes ATCC 9972 after 48 hrs; settings: ATCC 9972, 48 h
Nannizzia gypsea = test: Fungicidal activity against Microsporum gypseum CCC 115 after 48 hrs; settings: CCC 115, 48 h
Cryptococcus neoformans [21] = test: Fungicidal activity against Cryptococcus neoformans clinical isolate after 48 hrs
Candida albicans [22] = test: Antifungal activity against Candida albicans SC 5314 after 48 hrs by checkerboard method; settings: SC 5314, 48 h
Candida albicans [23] = test: Antifungal activity against Candida albicans clinical isolates after 48 hrs by checkerboard method
Nakaseomyces glabratus [24] = test: Antifungal activity against Candida glabrata after 48 hrs by checkerboard method

SMILES: CC1(C)C=Cc2c(ccc3c2OC[C@@H](c2ccc(O)cc2O)C3)O1 [GLABRIDIN]
MIC (Candida albicans [1]): 32 µg/mL | MIC (Cryptococcus neoformans [2]): 16 µg/mL | MIC (Candida tropicalis [3]): 64 µg/mL | MIC (Candida parapsilosis [4]): 64 µg/mL | MIC (Pichia kudriavzevii [5]): 16 to 64 µg/mL | MIC (Nakaseomyces glabratus [6]): 64 µg/mL | MIC (Candida albicans [7]): 64 µg/mL | MIC (Cryptococcus neoformans [8]): 16 to 64 µg/mL | MIC (Candida tropicalis [9]): 1 to 16 µg/mL | MIC (Candida parapsilosis [10]): 1 to 16 µg/mL | MIC (Pichia kudriavzevii [11]): 1 to 16 µg/mL | MIC (Nakaseomyces glabratus [12]): 1 to 16 µg/mL

SMILES: C[C@@H]1[C@H](O)[C@@H](C)/C=C/C=C/C=C/C=C/C=C/C=C/C=C/[C@H](O[C@@H]2O[C@H](C)[C@@H](O)[C@H](N)[C@@H]2O)C[C@@H]2O[C@](O)(C[C@@H](O)C[C@@H](O)[C@H](O)CC[C@@H](O)C[C@@H](O)CC(=O)O[C@H]1C)C[C@H](O)[C@H]2C(=O)O [AMPHOTERICIN B]
MIC (Cryptococcus neoformans [13]): 0.03 µg/mL (≈ 0.0325 µM)

SMILES: Cc1ccc(C(=O)/C=C/c2ccc(O)c(OCCCN(C)C)c2)cc1
MFC (Candida albicans [18]): 62.5 µg/mL (≈ 184 µM) | MFC (Saccharomyces cerevisiae): 62.5 µg/mL (≈ 184 µM) | MFC (Cryptococcus neoformans [19]): 62.5 µg/mL (≈ 184 µM) | MFC (Aspergillus flavus): 62.5 µg/mL (≈ 184 µM) | MFC (Aspergillus fumigatus): 62.5 µg/mL (≈ 184 µM) | MFC (Aspergillus niger): 62.5 µg/mL (≈ 184 µM) | MFC (Trichophyton rubrum): 62.5 µg/mL (≈ 184 µM) | MFC [20]: 62.5 µg/mL (≈ 184 µM) | MFC (Nannizzia gypsea): 62.5 µg/mL (≈ 184 µM) | MFC (Cryptococcus neoformans [21]): 62.5 µg/mL (≈ 184 µM)

Now from value to molecule:

MIC (Candida albicans [14]): 7.81 µg/mL (≈ 23.2 µM) | MIC (Nakaseomyces glabratus [15]): 7.81 µg/mL (≈ 23.2 µM) | MIC (Candida parapsilosis [16]): 7.81 µg/mL (≈ 23.2 µM) | MIC (Pichia kudriavzevii [17]): 7.81 µg/mL (≈ 23.2 µM)
SMILES: CC1(C)C=Cc2c(cc(O)c3c(=O)c(-c4ccc(O)cc4)coc23)O1 [DERRONE]

MIC (Candida albicans [22]): 500 µg/mL | MIC (Candida albicans [23]): 500 µg/mL | MIC (Nakaseomyces glabratus [24]): 250 µg/mL
SMILES: O=C(O)[C@H]1O[C@@H](Oc2cc3oc(-c4ccccc4)cc(=O)c3c(O)c2O)[C@H](O)[C@@H](O)[C@@H]1O [BAICALIN]
